Measurements reported in patent publication US20110158980A1, “METHODS TO TREAT AND SCREEN FOR AGENTS TO TREAT OBESITY” (TRUSTEES OF TUFTS COLLEGE, priority 2008, published 2011).

Legend:
Type in all cases: cell-based
[1] = tested on: 3T3-L1 adipocytes; experiment: Metabolite assays (TG, FFA, glucose, lactate, glycerol) on cell lysates and spent medium; conditions: day 12 post-induction
Experimental: (§1) 3T3-L1 preadipocytes were plated onto 24-well plates and expanded in preadipocyte growth medium consisting of DMEM supplemented with calf serum (10% v/v), penicillin and streptomycin. Medium was replenished every other day. Two days post-confluence, the cells were induced to differentiate using an adipogenic cocktail (1 μg/ml insulin, 0.5 mM isobutylmethylxanthine, and 1 μM dexamethasone) added to a basal medium (DMEM with 10% fetal bovine serum and penicillin/streptomycin). After 48 hrs, the first medium was replaced with a second induction medium consisting of the basal adipocyte medium supplemented with only insulin. […] This basal medium was replenished every other day during the remainder of the culture experiments.
(§2) Metabolite measurements were performed both on cell lysates and spent medium samples as described previously (Si Y, Yoon J, Lee K. American journal of physiology 2007; 292:E1637-46). Cells were lysed in situ with an 0.1% SDS buffer and sonicated. Immediately after collection, the spent medium samples were cleaned of cell debris by a brief centrifugation step. Free glycerol, TG and free fatty acids (FFAs) were measured using enzymatic assay kits (SIGMA™). Glucose and lactate concentrations were measured using the methods of Trinder (Trinder P. J Clin Pathol 1969; 22:158-61) and Loomis (Loomis M E. J Lab Clin Med 1961; 57:966-9), respectively. Amino acids were quantified by HPLC using fluorescence-based detection following pre-column derivatization of primary or secondary amines with 6-aminoquinolyl-N-hydroxysuccinimidyl-carbamate (Cohen S A, De Antonis K M. J Chromatogr A 1994; 661:25-34). All metabolite data were normalized by the corresponding cell sample DNA content, which was determined with a fluorescence-based assay using the Hoechst dye.

[2] = tested on: 3T3-L1 adipocytes; experiment: Amino acid uptake or output of adipocytes (HPLC of spent medium); conditions: day 12 post-induction, positive value = uptake
Experimental: as §1, §2

[3] = tested on: 3T3-L1 adipocytes; experiment: Oxygen uptake rate by fiber-optic microsensor; conditions: phenylacetate at the higher concentration (10 mM); day 12 post-induction; FIG. 2F
Experimental: The dissolved oxygen in the culture medium was measured using a needle-type fiber-optic microsensor (MicroxTX3, Presens, Regensburg, Germany). The concentration data were related to the oxygen uptake rate (OUR) using the following diffusion-reaction model:
where c0 and hb are, respectively, the oxygen concentration at medium surface and height of the medium in the culture well. The bottom of the culture plate (and cell monolayer) is at z=−hb. Integrating equation (1) and applying the boundary conditions we obtain: […]
where hm and cm are, respectively, the distance between the probe and the medium surface and the measured oxygen concentration in the medium at the probe depth. The oxygen uptake rate was calculated by dividing the flux JO2 by the cell density. The measured oxygen uptake rate was used for relative comparisons between the treatment groups and not used for MFA in order to independently confirm the calculated oxygen uptake rate.

## O=C(O)Cc1ccccc1 [phenylacetate]
[1]; 5 mM phenylacetate
  Increase of glucose uptake: 38%
  Increase of glycerol output: 1.2 fold
  Increase of lactate output: more than 2 fold
  Reduction of intracellular free fatty acid concentration: 9%
[1]; 10 mM phenylacetate
  Increase of glucose uptake: 28%
  Increase of glycerol output: 1.4 fold
  Increase of lactate output: more than 2 fold
  Reduction of intracellular free fatty acid concentration: 17%
[2]; 5 mM PA
  ALA uptake or output: 0.4 ± 0.1 mmol/g-DNA/2 days
  ASN uptake or output: −4.6 ± 0.2 mmol/g-DNA/2 days
  ASP uptake or output: 0.0 ± 0.0 mmol/g-DNA/2 days
  GLN uptake or output: −7.9 ± 0.6 mmol/g-DNA/2 days
  GLU uptake or output: 0.3 ± 0.0 mmol/g-DNA/2 days
  GLY uptake or output: −7.3 ± 0.2 mmol/g-DNA/2 days
  HIS uptake or output: −0.1 ± 0.1 mmol/g-DNA/2 days
  ILE uptake or output: 8.1 ± 0.3 mmol/g-DNA/2 days
  LEU uptake or output: 8.6 ± 0.3 mmol/g-DNA/2 days
  LYS uptake or output: −1.8 ± 0.1 mmol/g-DNA/2 days
  MET uptake or output: 0.1 ± 0.1 mmol/g-DNA/2 days
  PHE uptake or output: −0.1 ± 0.1 mmol/g-DNA/2 days
  PRO uptake or output: −1.4 ± 0.0 mmol/g-DNA/2 days
  SER uptake or output: 4.5 ± 0.2 mmol/g-DNA/2 days
  THR uptake or output: −1.2 ± 0.1^ mmol/g-DNA/2 days
  TYR uptake or output: 0.1 ± 0.2 mmol/g-DNA/2 days
  VAL uptake or output: 5.1 ± 0.4 mmol/g-DNA/2 days
[2]; 10 mM PA
  ALA uptake or output: −0.5 ± 0.1 mmol/g-DNA/2 days
  ASN uptake or output: −5.9 ± 0.4 mmol/g-DNA/2 days
  ASP uptake or output: 0.0 ± 0.0 mmol/g-DNA/2 days
  GLN uptake or output: 2.6 ± 2.9 mmol/g-DNA/2 days
  GLU uptake or output: 0.3 ± 0.0 mmol/g-DNA/2 days
  GLY uptake or output: −7.9 ± 0.9^ mmol/g-DNA/2 days
  HIS uptake or output: −0.1 ± 0.2 mmol/g-DNA/2 days
  ILE uptake or output: 7.5 ± 0.2 mmol/g-DNA/2 days
  LEU uptake or output: 7.9 ± 0.2 mmol/g-DNA/2 days
  LYS uptake or output: −2.0 ± 0.2 mmol/g-DNA/2 days
  MET uptake or output: 0.1 ± 0.2 mmol/g-DNA/2 days
  PHE uptake or output: −0.1 ± 0.4 mmol/g-DNA/2 days
  PRO uptake or output: −2.1 ± 0.2 mmol/g-DNA/2 days
  SER uptake or output: 4.6 ± 0.5 mmol/g-DNA/2 days
  THR uptake or output: −1.4 ± 0.4^ mmol/g-DNA/2 days
  TYR uptake or output: −0.0 ± 0.4 mmol/g-DNA/2 days
  VAL uptake or output: 3.8 ± 0.4 mmol/g-DNA/2 days
[3]
  Reduction of oxygen consumption: 25%
